Structures are written as SMILES.

The text below walks through data of paper PMC6176987, “Correction of cognitive deficits in mouse models of Down syndrome by a pharmacological inhibitor of DYRK1A” (Disease Models & Mechanisms, 2018).

For series [1], the system named is Dp1Yey mice. As to the kind of experiment: Novel object recognition (NOR) test in Dp1Yey mice. Format: in vivo, mouse. The note with it: daily i.p. treatment for 19 days. Here is the method:
(§1) Behavioural studies were conducted in 12- to 20-week-old male animals. All assessments were scored blind to genotype and treatment, as recommended by the ARRIVE guidelines ([Karp et al., 2015]; [Kilkenny et al., 2010]). […] The final formulation was prepared just prior to use as a 2 mg/ml solution diluted in PEG300/water (50/45), to reach a final DMSO/PEG300/water 5/50/45 (v/v/v) mix. Treated animals received a daily dose (5, 12 or 19 days) of this formulation by i.p. injection of 20 mg/kg/day. Nontreated animals received the same formulation without L41.
(§2) The NOR task is based on the innate tendency of rodents to differentially explore a novel object over a familiar one ([Ennaceur and Delacour, 1988]). Day 1 was a habituation session. Mice freely explored the apparatus, a white circular arena (53 cm diameter) placed in a dimly lit testing room (40 lux). On day 2, the acquisition phase, mice were free to explore two identical objects for 10 min. Mice were then returned to their home cage for a 24 h retention interval. […] Object exploration was manually scored and defined as the orientation of the nose to the object at a distance <1 cm. For the retention phase, the percent of time spent exploring familiar versus novel objects was calculated to assess memory performance.

The target of another series is T1, CDK9/cyclin T (Homo sapiens, UniProt P50750).
T1 construct: made in house; host or cells: insect cells
T1 sequence (P50750 whole entry): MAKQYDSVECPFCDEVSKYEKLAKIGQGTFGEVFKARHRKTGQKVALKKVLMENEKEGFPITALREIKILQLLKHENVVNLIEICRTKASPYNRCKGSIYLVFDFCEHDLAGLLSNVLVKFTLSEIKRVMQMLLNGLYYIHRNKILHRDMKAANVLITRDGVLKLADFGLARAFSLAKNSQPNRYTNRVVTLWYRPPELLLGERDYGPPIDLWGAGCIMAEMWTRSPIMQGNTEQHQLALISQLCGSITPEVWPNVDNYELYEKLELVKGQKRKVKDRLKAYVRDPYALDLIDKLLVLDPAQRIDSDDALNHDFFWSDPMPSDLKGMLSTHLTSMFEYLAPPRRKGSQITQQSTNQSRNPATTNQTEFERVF
T1 sequence (O60563 whole entry partner): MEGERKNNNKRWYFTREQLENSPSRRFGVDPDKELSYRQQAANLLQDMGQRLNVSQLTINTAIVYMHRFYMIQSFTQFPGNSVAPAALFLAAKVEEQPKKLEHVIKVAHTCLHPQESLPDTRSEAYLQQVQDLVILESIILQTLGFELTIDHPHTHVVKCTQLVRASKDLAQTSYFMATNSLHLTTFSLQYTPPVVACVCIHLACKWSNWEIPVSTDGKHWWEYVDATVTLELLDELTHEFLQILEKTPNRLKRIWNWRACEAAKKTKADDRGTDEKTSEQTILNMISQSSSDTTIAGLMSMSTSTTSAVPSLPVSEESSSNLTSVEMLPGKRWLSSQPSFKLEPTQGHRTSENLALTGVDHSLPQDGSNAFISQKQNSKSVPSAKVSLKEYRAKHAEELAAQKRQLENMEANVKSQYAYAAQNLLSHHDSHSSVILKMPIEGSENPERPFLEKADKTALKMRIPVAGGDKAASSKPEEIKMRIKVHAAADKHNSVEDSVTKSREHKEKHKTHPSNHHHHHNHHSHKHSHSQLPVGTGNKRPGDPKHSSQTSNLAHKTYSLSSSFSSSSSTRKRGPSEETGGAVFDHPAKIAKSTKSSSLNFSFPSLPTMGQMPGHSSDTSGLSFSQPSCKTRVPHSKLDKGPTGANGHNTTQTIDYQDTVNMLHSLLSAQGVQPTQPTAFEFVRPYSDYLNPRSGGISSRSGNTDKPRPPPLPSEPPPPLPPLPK
Nature of the series: Recombinant protein kinase assay, CDK9/cyclin T. The series is classed as biochemical. The note with it: 15 µM ATP.

The next series addresses CLK1 (Mus musculus, UniProt P22518). As to the kind of experiment: Recombinant protein kinase assay, CLK1. The series is classed as biochemical.
For another series, the system named is Ts65Dn mice. Nature of the series: Novel object recognition (NOR) test in Ts65Dn mice. Conditions: daily i.p. treatment for 19 days. The series is classed as in vivo, mouse. Here is the method:
as §1, §2

Another series has as its target T2, DYRK1A (Mus musculus, UniProt Q61214).
T2 construct: DYRK1A was purified from brain extracts by immunoprecipitation; from tissue; host or cells: mouse brain (wt, Tg(Dyrk1a), Ts65Dn)
As to the kind of experiment: Brain DYRK1A catalytic activity after treatment, Ts65Dn mice. The note with it: 19 days daily i.p., normalized to GSK-3α/β activity. Format: in vivo. Here is the method:
Protein kinase assays to measure the catalytic activity of DYRK1A in the brains of the animals treated with or without drugs were performed as follows: frozen half brains were homogenized in lysis buffer (1.2 ml/half brain) using Precellys® homogenizer tubes. After centrifugation at 2800 g for 2×15 s, 1 mg brain extract was incubated with 2 µg DYRK1A (H00001859 M01, Interchim) or GSK3-β (MBS8508391, Emelca Bioscience, France) antibodies at 4°C for 1 h under gentle rotation. Then, 20 µl protein G agarose beads (Thermo Fisher Scientific, France), previously washed three times with bead buffer (50 mM Tris pH 7.4, 5 mM NaF, 250 mM NaCl, 5 mM EDTA, 5 mM EGTA, 0.1% Nonidet P-40 and protease inhibitor cocktail from Roche, France), were added to the mix and gently rotated at 4°C for 30 min. After a 1 min spin at 10,000 g and removal of the supernatant, the pelleted immune complexes were washed three times with bead buffer, and a last time with Buffer C (60 mM β-glycerophosphate, 30 mM p-nitrophenolphosphate, 25 mM Mops pH 7.2, 5 mM EGTA, 15 mM MgCl2, 2 mM dithiothreitol, 0.1 mM sodium orthovanadate, 1 mM phenylphosphate, protease inhibitor cocktail). DYRK1A or GSK-3 immobilized on beads were assayed in buffer C as described in the Supplementary Materials and Methods with Woodtide ([…]) (1.5 µg/assay) or GSK3-tide ([…]pSED-EEE, where pS stands for phosphorylated serine) as substrates.

The target of another series is T3, CK2 (Homo sapiens, UniProt P68400).
T3 construct: Cochet
T3 sequence (P68400 whole entry): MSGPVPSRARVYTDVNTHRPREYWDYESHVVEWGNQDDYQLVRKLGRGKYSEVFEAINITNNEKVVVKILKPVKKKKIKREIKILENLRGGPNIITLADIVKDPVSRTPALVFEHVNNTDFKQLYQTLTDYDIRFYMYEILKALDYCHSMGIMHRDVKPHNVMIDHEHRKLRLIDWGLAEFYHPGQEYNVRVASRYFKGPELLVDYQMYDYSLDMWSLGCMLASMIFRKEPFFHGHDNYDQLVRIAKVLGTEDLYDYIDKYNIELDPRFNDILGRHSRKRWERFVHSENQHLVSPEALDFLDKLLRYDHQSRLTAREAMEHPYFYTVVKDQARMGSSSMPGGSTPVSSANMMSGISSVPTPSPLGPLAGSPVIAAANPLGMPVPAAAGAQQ
Nature of the series: Recombinant protein kinase assay, CK2. The series is classed as biochemical. Conditions: 15 µM ATP.

The subject of series [2] is Dp1Yey mice. As to the kind of experiment: Resting state fMRI brain functional connectivity, Dp1Yey mice. The note with it: L41-treated vs vehicle-treated Dp1Yey mice.
A short description of series [3]: L41 levels in brain nuclear and cytoplasmic fractions. Conditions: mouse, in vivo. As for the experimental part: Thus, DYRK1A overexpression in the transgenic animals' brains appears to be limited to the cytoplasmic fraction, corresponding to the subcellular distribution of overexpressed DYRK1A (Fig. 7A,B). Accordingly, more L41 is detected in the cytoplasmic fraction from transgenic animals compared with their control littermates.
Nuclear, cytosolic and synaptosomal subcellular fractionation of brain tissue was performed with the Syn-PER™ and ProteoExtract® Tissue Dissociation Buffer Kit and Subcellular Proteome Extraction Kit following the instructions of the manufacturer. Fractions were analysed by SDS-PAGE and WB with specific antibodies.

The test system of a further series is Tg(Dyrk1a) mice. Nature of the series: Place object location (POR) spatial memory in Tg(Dyrk1a) mice. Conditions: L41-treated Tg(Dyrk1a) mice. Format: in vivo, mouse.
The target of another series is CLK3 (Mus musculus, UniProt O35492). Nature of the series: Recombinant protein kinase assay, CLK3. Format: biochemical.
CLK3, sequence (O35492 whole entry): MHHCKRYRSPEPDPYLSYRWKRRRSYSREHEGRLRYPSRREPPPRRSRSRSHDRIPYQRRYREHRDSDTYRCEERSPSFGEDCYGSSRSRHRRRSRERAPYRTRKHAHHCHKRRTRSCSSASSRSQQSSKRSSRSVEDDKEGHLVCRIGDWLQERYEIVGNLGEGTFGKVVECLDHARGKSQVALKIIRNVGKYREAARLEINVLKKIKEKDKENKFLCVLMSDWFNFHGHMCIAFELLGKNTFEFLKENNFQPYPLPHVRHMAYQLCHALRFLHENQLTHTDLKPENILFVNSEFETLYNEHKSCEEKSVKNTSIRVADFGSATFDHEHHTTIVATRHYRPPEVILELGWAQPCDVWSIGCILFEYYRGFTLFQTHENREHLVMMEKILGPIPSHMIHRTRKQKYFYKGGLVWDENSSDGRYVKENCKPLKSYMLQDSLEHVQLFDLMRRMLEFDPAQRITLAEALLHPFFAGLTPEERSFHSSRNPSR

CLK1, sequence (P22518 whole entry): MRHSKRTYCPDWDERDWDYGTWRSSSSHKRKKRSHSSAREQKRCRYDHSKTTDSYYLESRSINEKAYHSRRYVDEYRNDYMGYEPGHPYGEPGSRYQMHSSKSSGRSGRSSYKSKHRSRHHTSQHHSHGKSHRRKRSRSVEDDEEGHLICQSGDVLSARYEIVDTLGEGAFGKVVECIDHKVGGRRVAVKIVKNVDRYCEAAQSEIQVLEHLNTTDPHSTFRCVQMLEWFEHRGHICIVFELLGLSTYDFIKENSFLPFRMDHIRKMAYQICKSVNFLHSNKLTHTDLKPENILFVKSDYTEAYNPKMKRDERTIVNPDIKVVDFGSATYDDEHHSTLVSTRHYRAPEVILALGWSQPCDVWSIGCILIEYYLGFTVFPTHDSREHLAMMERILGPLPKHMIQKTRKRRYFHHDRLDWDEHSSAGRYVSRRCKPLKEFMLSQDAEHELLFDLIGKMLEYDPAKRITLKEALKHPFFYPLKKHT

Regarding `O=C1NC(Nc2ccccc2)=N/C1=C\c1ccc2c(c1)OCO2` [L41], the NOR test outcome with Dp1Yey mice [1] and in the series with Ts65Dn mice was “rescue” each time. In addition, the IC50 at CDK9/cyclin T is above 10000 nM; at CLK1, 23 nM; on CK2, 510 nM; at CLK3, 1200 nM. Further, on DYRK1A, the “Reduction of brain DYRK1A activity” value was around 30%. Besides, the “Effect on altered default mode network (DMN) pattern” value in the series on Dp1Yey mice [2] was “rescued”. Further, the “L41 level in brain cytoplasmic fraction, Tg(Dyrk1a) vs wt” value in series [3] is reported as “significantly increased”. Moreover, the “L41 levels in brain nuclear fractions, Tg(Dyrk1a) vs wt” value in [3] is “identical L41 levels”. Also, the “Effect on place memory (place object location)” value in the series with Tg(Dyrk1a) mice is “no restoring effect”.

One may read the IC50 as the concentration needed to halve the response being measured.
